In patent US5876715A, “Antibodies that bind novel carbohydrate ligands (myelorollins) that cause E-selectin dependent cell rolling, and uses thereof” (The Biomembrane Institute, priority 1996, dated 1999):
Entries after “also recorded” stand apart in the source; their conditions may differ.

Tested on: E-selectin-expressing CHO cells
Experiment: Static adhesion of E-selectin-expressing CHO cells to gangliosides coated on polystyrene beads affixed to glass slides
Assay type: cell-based, Chinese hamster
Conditions: static conditions, ganglioside coated on polystyrene beads affixed on glass slides
Experimental: Polystyrene beads (1 μm diameter) were spread and affixed to glass microscope slides as described in Materials & Methods, added with 100 ng of poly-LacNac ganglioside dissolved in isopropanol-hexane-water (50:45:10), allowed to dry for 1 hr, and immersed in PBS containing 2% BSA. The slides were placed in Petri dishes and overlaid with RPMI medium containing E-selectin-expressing CHO cells (1×10^5 /cells mL). After 10 min incubation, slides were washed with PBS and total numbers of cells adhered on beads were counted. Each point represents one experiment. Horizontal lines indicate arithmetic means.
Gangliosides coated on polystyrene beads affixed on glass slides as described above and placed in petri dishes were incubated with E-selectin-expressing CHO cells in 1% FCS-RPMI medium. After 30 min, slides were washed 3 times with PBS, and numbers of adherent cells were counted under a microscope.
Polystyrene latex beads were affixed on glass microscope slides, added with 1 nmol of ganglioside fraction dissolved in isopropanol-hexane-water (50:45:10), allowed to dry for 1 hr, and then immersed in PBS(+) containing 1% bovine serum albumin. The slides were placed in Petri dishes containing permanently E-selectin-expressing CHO cells (1×10^5) in RPMI medium. After 30 min. incubation, slides were washed with PBS and total numbers of cells adhered on the affixed beads were counted. Sdiy^2 is sialyl-Le^x -Le^x (VI^3 NeuAcV^3 FucIII^3 FucnLc6 Cer).
Static adhesion assay using polystyrene latex beads: In order to observe static adhesion with the same matrix used for dynamic adhesion assay, the following procedure was used. Polystyrene latex beads of 1 μm or 4 μm diameter (IDC Spheres™; IDC, Portland, Oreg.), affixed to objective microscope slides, were used as carriers of poly-LacNAc GSLs. 30 μL of the 4 μm diameter bead suspension (containing 2×10^9beads/mL) or 60 μL of 1 μm bead suspension (containing 1×10^11 beads/mL) were placed in Eppendorf tubes and washed with absolute ethanol 3×. Sedimented 4 μm beads were suspended in […] ethanol, and sedimented 1 μm beads were suspended in 2 mL ethanol. 1 μL aliquots of these suspensions were placed on freshly opened microscope slides (Labcraft Superfrost® Plus, Curtin Matheson Scientific, Houston, Tex.). Beads were distributed homogeneously on the glass surface within a circular spot with diameter ≈1 cm. Slides were heated at 150° C. for 50 sec, which caused the beads to adhere strongly to the surface such that they could not be washed off by water stream at various velocities. Gangliosides dissolved in isopropanol-hexane-water at the same molar concentration were applied to latex beads affixed to the slides; namely, 1 μL aliquots containing 50-100 ng ganglioside were placed on the center of the circular spot. The ganglioside thus became affixed to the bead surface. Plates were immersed in 3% BSA in PBS for 1 hr at room temp, and washed 3× with PBS containing Ca^2+ /Mg^2+.
Plates were overlaid with 5×10^5 CHO cells freshly harvested and suspended in RPMI culture medium for 15 min without moving. Washing with RPMI 3× was usually sufficient to eliminate non-adherent cells from beads. However, careful microscopic examination had to be repeated until the cells placed on control polystyrene beads were washed out. Plates were then fixed with 1% glutaraldehyde in PBS and number of cells adhered to the layer of poly-LacNAc ganglioside-coated beads were counted.

| Substance | adhesion of E-selectin-expressing CHO cells (number of cells adhered on beads) | also measured |
| --- | --- | --- |
| VI^3 NeuAcV^3 FucIII^3 FucnLc6 Cer [SLe^x -Le^x, reference compound] | greatest cell adhesion; also recorded: highest adhesion; also recorded: slightly higher adhesion than Fr. 13-1; also recorded: highest binding; also recorded: higher number of E-selectin-expressing cells adhered | adhesion of E-selectin-expressing CHO cells (number of cells adhered on beads) (listed as Str. 3): much higher number of cells bound; also recorded: much higher adhesion than myelorollin |
| VIII^3 NeuAcIII^3 FucnLc8 Cer [Fr. 10-2] | much weaker adhesion than Fr. 13-1 or Fr. 14 |  |
| VIII^3 NeuAcV^3 FucnLc8 Cer [Fr. 10-1] | much weaker adhesion than Fr. 13-1 or Fr. 14 | adhesion of E-selectin-expressing CHO cells (number of cells adhered on beads) (listed as Str. 4): do not show appreciable adhesion |
| X^3 NeuAcVII^3 FucV^3 FucnLc10 Cer [Fr. 13-1] | less than numbers binding to Str. 3 |  |
| VI^3 NeuAcnLc6 Cer [Fr. 7] | no adhesion | adhesion of E-selectin-expressing CHO cells (number of cells adhered on beads) (listed as Str. 1): did not bind |
| X^3 NeuAcVII^3 FucnLc10 Cer [Fr. 12-2] | much weaker adhesion than Fr. 13-1 or Fr. 14 | adhesion of E-selectin-expressing CHO cells (number of cells adhered on beads) (listed as Str. 6): do not show appreciable adhesion |
